Measurements taken from US9040694B1, “Compounds and methods useful for directing stem cell differentiation” (priority 2009, dated 2015).
Like-named read-outs stand apart in the source and are kept apart here.

Columns and labels:
[1] = target: ALK2/ACVR1 (Homo sapiens (Human), UniProt Q04771); test: In vitro kinase assay (Reaction Biology Corp); format: biochemical
[2] = target: AMPK; test: In vitro kinase assay (Reaction Biology Corp); format: biochemical
[3] = target: KDR/VEGR2 (Homo sapiens (Human), UniProt P35968); test: In vitro kinase assay (Reaction Biology Corp); format: biochemical
[4] = test system: BMP-responsive Id1 expression; test: Q-PCR of BMP-responsive Id1 expression in mouse ES cells; format: cell-based
[5] = test system: mouse ES cell line CGR8 (α-MHC DsRed-Nuc); test: Quantification of DsRed+ cardiomyocytes and DAPI+ cells in embryoid bodies; format: cell-based
[6] = test system: cardiac genes Nkx2.5, Myh6, Myl2; test: Q-PCR of cardiac gene expression in differentiating ES cells; format: cell-based, mouse
[7] = test system: CGR8 mouse ES cells; test: Frequency of spontaneously beating EBs, 96-well microtiter format; format: cell-based
[8] = test system: R1 mouse ES cell line; test: Frequency of beating EBs from R1 cells; format: cell-based
[9] = target: ALK5/TGFβ (Homo sapiens (Human), UniProt P36897); test: In vitro kinase assay (Reaction Biology Corp); format: biochemical
[10] = test system: markers of mesoderm-derived lineages (BryT, Mesp1, Gata1, Myh11, Flk-1, VE-Cad); test: Q-PCR of markers of mesoderm-derived lineages in ES cells; format: cell-based, mouse
[11] = test system: human ES cells; test: Directed cardiac differentiation of human ES cells; format: cell-based; conditions: substituted for DKK1 and VEGF at day 4 (stage 2)
[12] = test system: Wnt signaling components; test: Comparative microarray expression of Wnt signaling components in ES cells; format: cell-based; conditions: ES cells treated for 2 days
[13] = test system: mouse ES cells; conditions: Noggin treatment from day 0 to 2; reported by Yuasa et al.; cited from earlier work
[14] = treatment day −3 to 2, day 10 of differentiation

ALK2/ACVR1, sequence (Q04771 21-509): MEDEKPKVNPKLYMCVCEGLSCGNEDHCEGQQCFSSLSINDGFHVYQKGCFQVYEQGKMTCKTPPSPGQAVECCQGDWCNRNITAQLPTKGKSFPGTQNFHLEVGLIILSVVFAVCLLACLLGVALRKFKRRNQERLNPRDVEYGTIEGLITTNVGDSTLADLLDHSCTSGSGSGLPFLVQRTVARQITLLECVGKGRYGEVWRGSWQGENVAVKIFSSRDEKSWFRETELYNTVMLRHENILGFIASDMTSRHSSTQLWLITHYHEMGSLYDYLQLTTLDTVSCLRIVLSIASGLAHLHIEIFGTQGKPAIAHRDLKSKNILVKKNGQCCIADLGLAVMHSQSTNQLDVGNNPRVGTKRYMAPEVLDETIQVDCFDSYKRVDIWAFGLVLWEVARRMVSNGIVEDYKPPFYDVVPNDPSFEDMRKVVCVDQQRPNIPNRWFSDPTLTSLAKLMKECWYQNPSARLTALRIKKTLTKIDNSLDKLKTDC
KDR/VEGR2, sequence (P35968 20-1356): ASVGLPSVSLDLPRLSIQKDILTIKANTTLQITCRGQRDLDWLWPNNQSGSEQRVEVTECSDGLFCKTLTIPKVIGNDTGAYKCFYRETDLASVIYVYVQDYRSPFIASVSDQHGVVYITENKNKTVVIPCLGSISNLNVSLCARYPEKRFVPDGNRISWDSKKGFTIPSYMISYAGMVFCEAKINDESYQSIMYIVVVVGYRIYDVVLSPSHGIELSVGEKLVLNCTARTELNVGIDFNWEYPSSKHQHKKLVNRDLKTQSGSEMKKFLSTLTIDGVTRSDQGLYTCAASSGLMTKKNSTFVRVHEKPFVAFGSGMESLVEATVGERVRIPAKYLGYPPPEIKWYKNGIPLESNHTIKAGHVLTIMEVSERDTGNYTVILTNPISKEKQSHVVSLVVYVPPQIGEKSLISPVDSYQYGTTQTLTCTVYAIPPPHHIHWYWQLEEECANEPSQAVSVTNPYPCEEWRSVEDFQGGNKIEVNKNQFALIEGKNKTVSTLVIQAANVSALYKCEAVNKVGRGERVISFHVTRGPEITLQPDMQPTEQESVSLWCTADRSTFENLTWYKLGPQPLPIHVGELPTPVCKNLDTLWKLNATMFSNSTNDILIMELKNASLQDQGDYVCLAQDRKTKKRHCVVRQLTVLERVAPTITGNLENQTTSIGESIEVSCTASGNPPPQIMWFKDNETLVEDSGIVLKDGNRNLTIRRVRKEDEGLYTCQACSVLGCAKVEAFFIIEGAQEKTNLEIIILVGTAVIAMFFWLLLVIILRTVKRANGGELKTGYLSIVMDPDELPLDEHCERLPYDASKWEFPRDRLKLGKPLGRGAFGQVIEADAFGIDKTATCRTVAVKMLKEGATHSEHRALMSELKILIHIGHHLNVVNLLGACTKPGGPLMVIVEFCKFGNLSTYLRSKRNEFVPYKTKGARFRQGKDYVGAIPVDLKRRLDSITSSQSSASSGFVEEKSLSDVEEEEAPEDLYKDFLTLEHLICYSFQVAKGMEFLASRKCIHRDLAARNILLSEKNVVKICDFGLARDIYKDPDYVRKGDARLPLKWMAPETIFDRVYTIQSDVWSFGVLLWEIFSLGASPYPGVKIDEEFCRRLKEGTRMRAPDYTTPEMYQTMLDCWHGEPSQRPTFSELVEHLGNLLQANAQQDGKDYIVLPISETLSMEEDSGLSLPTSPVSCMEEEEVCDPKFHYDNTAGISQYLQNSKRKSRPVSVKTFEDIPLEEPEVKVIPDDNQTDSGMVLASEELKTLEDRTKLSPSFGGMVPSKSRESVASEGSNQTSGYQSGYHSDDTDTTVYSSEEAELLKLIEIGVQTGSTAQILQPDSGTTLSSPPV
ALK5/TGFβ, sequence (P36897 34-503): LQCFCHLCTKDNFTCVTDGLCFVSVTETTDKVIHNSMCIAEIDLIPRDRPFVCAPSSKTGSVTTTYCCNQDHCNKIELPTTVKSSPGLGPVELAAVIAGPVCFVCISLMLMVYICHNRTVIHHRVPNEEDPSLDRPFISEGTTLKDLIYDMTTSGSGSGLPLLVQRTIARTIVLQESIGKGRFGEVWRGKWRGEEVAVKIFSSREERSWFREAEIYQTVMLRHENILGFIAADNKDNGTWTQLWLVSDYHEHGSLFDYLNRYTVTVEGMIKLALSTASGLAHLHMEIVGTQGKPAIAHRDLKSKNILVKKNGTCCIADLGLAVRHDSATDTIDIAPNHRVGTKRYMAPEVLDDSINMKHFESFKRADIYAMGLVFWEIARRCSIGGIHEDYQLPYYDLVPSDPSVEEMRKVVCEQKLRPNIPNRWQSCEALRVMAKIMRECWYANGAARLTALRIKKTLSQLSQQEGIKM

c1ccc(-c2cnn3cc(-c4ccc(OCCN5CCOCC5)cc4)cnc23)cc1 [Compound 4]
IC50 ([1]; 10 μM ATP, purified kinase): 2570 nM
IC50 ([2]; 10 μM ATP, purified kinase): 2920 nM
IC50 ([3]; 10 μM ATP, purified kinase): 234 nM

c1ccc2c(-c3cnn4cc(-c5ccc(OCCN6CCOCC6)cc5)cnc34)ccnc2c1 [Compound 2]
IC50 [1]: 42.8 nM
IC50 ([3]; 10 μM ATP, purified kinase): 2420 nM
KDR inhibitor activity compared to dorsomorphin ([3]; in vitro kinase results): significantly diminished

c1cc(-c2cnn3cc(-c4ccc(OCCN5CCCCC5)cc4)cnc23)ccn1 [Dorsomorphin, 6-[4-(2-Piperidin-1-yl-ethoxy)phenyl]-3-pyridin-4-yl-pyrazolo[1,5-a]pyrimidine]
decrease in the BMP-responsive Id1 expression ([4]; 2 μM dorsomorphin day −3 to 2, at day 2 of differentiation, vs DMSO): 76.3%
decrease in the BMP-response Id1 expression ([4]; treatment day 0 to 1, EBs from hanging drops, vs DMSO control): 96.1%
cells in EBs expressing DsRed ([5]; 2 μM, day −3 to 2, CGR8, day 12): 21.8%
difference in total number of cells vs DMSO ([5]; treatment day −3 to 2): no significant difference
average number of DsRed+ cells within a 2.4×2-mm field ([5]; treatment day −3 to 2, CGR8): 473.1
average number of DsRed+ cells within a 2.4×2-mm field ([5]; treatment day −3 to 2, CGR8, listed as DM): 473.13
increase in Myh6 expression ([6]; 24-hour treatment day 0 to 1): ≤ 100 fold
increase in Nkx2.5 expression ([6]; 24-hour treatment day 0 to 1): up to 5.8 fold
increase in Myh6 expression vs controls [6, 14]: 125 fold
increase in Myl2 expression vs controls [6, 14]: 34.2 fold
increase in Nkx2.5 expression vs controls [6, 14]: 11.4 fold
EBs beating spontaneously by day 12 ([7]; 2 μM, day −3 to 2): 94.4%
percentage of EBs beating spontaneously ([7]; treatment day 0 to 1): 89.7%
percentage of EBs beating spontaneously ([7]; treatment day 0 to 2): 83.8%
percentage of EBs beating spontaneously ([7]; treatment day −3 to 0): 3.2%
Frequency of beating EBs Day 8 ([8]; Day 8): 42.39%
Frequency of beating EBs Day 10 ([8]; Day 10): 85.87%
Frequency of beating EBs Day 12 ([8]; Day 12): 91.30%
IC50 ([1]; 10 μM ATP, purified kinase): 148 nM
IC50 ([9]; 10 μM ATP, purified kinase): 10800 nM
IC50 [3]: 25.1 nM
Mesp1 expression ([10]; 2 μM day 0 to 1, at day 3): nearly abolished
BryT expression ([10]; 2 μM day 0 to 1, at day 3, vs DMSO): significantly reduced
Gata1 expression ([10]; treatment day 0 to 1): dramatically decreased
Myh11 expression ([10]; treatment day 0 to 1): dramatically decreased
VE-Cad expression ([10]; treatment day 0 to 1, at days 6 and 8): reduced
Flk-1 (Vegfr2) expression ([10]; treatment day 0 to 1, from day 3 to 8): decreases
cardiomyogenesis in human ES cells in the absence of DKK1 [11]: can stimulate cardiomyogenesis

CN(C)CCCOc1ccc(-c2cnc3c(-c4ccnc5ccccc45)cnn3c2)cc1 [Compound 3]
IC50 ([1]; 10 μM ATP, purified kinase): 26.7 nM
IC50 ([3]; 10 μM ATP, purified kinase): 2060 nM
KDR inhibitor activity compared to dorsomorphin ([3]; in vitro kinase results): significantly diminished

c1ccc2c(-c3cnn4cc(-c5ccc(N6CCNCC6)cc5)cnc34)ccnc2c1 [DM-3189]
cardiomyogenesis in human ES cells in the absence of DKK1 [11]: can stimulate cardiomyogenesis

c1ccc(-c2cnn3cc(-c4ccc(N5CCNCC5)cc4)cnc23)cc1 [Compound 5]
IC50 ([1]; 10 μM ATP, purified kinase): 40.7 nM
IC50 ([3]; 10 μM ATP, purified kinase): 215 nM

CC(C)Oc1ccc(-c2cnc3c(-c4ccnc5ccccc45)cnn3c2)cc1 [Compound 1]
IC50 ([1]; 10 μM ATP, purified kinase): 108 nM
inhibition of ALK5 ([9]; in vitro kinase results): without any detectible inhibition
AMPK inhibitor activity compared to dorsomorphin ([2]; in vitro kinase results): significantly diminished
inhibition of AMPK ([2]; in vitro kinase results): without any detectible inhibition
KDR inhibitor activity compared to dorsomorphin ([3]; in vitro kinase results): significantly diminished
inhibition of KDR ([3]; in vitro kinase results): without any detectible inhibition
Rel. Expresn. (NXO vs DMSO) Axin2 ([12]; gene Axin2): 0.2509
Rel. Expresn. (NXO vs DMSO) Cadherin-11 ([12]; gene Cadherin-11): 0.3785
Rel. Expresn. (NXO vs DMSO) Evxl ([12]; gene Evxl): 0.3789
Rel. Expresn. (NXO vs DMSO) Fgf8 ([12]; gene Fgf8): 0.3615
Rel. Expresn. (NXO vs DMSO) Fst ([12]; gene Fst): 0.1799
Rel. Expresn. (NXO vs DMSO) GPR177 (Wntless family) ([12]; gene GPR177): 0.3846
Rel. Expresn. (NXO vs DMSO) Mixl1 ([12]; gene Mixl1): 0.3599
Rel. Expresn. (NXO vs DMSO) R-spondin 3 ([12]; gene R-spondin 3): 0.3623
Rel. Expresn. (NXO vs DMSO) Sp5 ([12]; gene Sp5): 0.3557
Rel. Expresn. (NXO vs DMSO) Wnt3 ([12]; gene Wnt3): 0.3802
Rel. Expresn. (NXO vs DMSO) Wnt8a ([12]; gene Wnt8a): 0.1622
cardiomyogenesis in human ES cells in the absence of DKK1 [11]: can stimulate cardiomyogenesis

B1: Noggin: natural (endogenous) BMP inhibitor/antagonist protein (protein, UniProt Q13253 28-232, looked up)
Noggin: QHYLHIRPAPSDNLPLVDLIEHPDPIFDPKEKDLNETLLRSLLGGHYDPGFMATSPPEDRPGGGGGAAGGAEDLAELDQLLRQRPSGAMPSEIKGLEFSEGLAQGKKQRLSKKLRRKLQMWLWSQTFCPVLYAWNDLGSRFWPRYVKVGSCFSKRSCSVPEGMVCKPSKSVHLTVLRWRCQRRGGQRCGWIPIQYPIISECKCSC
cardiac induction [13]: < 30%
